The conditions of series [1]: Crystal; DTA.
Series [2] can be described thus: Molar enthalpy of transition or fusion. As to conditions: Crystal; DSC.

The values that follow come from the NIST ThermoML archive (doi:10.1016/j.tca.2015.02.001).

The structures appear in SMILES notation. Numbers after ± are expanded uncertainties.

Turning to `CCn1cc[n+](C)c1.[I-]` [1-ethyl-3-methylimidazolium iodide], the Triple point temperature in series [1] was 347.15 ± 2 K. Besides, the “Molar enthalpy of transition or fusion” value in series [2] amounted to 4.04 ± 0.311 kcal/mol.
`CCn1cc[n+](C)c1.[Cl-]` [1-ethyl-3-methylimidazolium chloride]: in series [1], the Triple point temperature worked out at 359.15 ± 2 K. In series [2], the “Molar enthalpy of transition or fusion” value is 3.39 ± 0.335 kcal/mol.
`CCn1cc[n+](C)c1.[Br-]` [1-ethyl-3-methylimidazolium bromide]: the Triple point temperature in series [1] worked out at 340.15 ± 2 K. The “Molar enthalpy of transition or fusion” value in series [2] came to 4.61 ± 0.359 kcal/mol.
